We go through four molecules from patent US20240352415A1, “METHODS FOR THE GENERATION OF HUMAN RETINAL GANGLION CELLS AND COMPOSITIONS, ASSAYS, DEVICES, AND KITS COMPRISING SAME” (priority 2021, published 2024).

Entries after “also recorded” stand apart in the source; their conditions may differ.

Assay [1] concerns CONCEPT telencephalon-eye organoids. Put plainly: Inhibition of FGF signaling in CONCEPT telencephalon-eye organoids with FGFR and MEK inhibitors (immunostaining readout). The class given is cell-based, human. As to conditions: inhibitor in culture medium starting on day 15, harvested day 24; PD 161570 1 μM, PD 0325901 2 μM; DMSO control. How it is done:
CONCEPT telencephalon-eye organoids were generated as follows. A humidified incubator at 37° C. with 5% C02 was used for cell culture. H1 hESCs or iPSCs that were passaged using ReLeSR two or three days before experiments were detached using Dispase (GIBCO 17105041) and then harvested by centrifugation. After that, the cell pellets were suspended in ice-cold Matrigel. After gelling at 37° C. for 15-20 minutes, the hESC/Matrigel clump was gently dispersed in a N2B27 Medium (DMEM/F12+GlutaMAX (GIBCO):Neurobasal medium (GIBCO)=1:1, 0.5×B27 supplement (GIBCO), 0.5×N2 supplement (GIBCO), 0.1 mM β-mercaptoethanol, and 0.2 mM L-GlutaMax) for floating culture. With the starting day of cell differentiation designated as day 0, cysts with a single lumen formed on day 1. On days 3-5, individual cysts were manually picked using a curved Pasteur pipets under an inverted microscope and then seeded onto Matrigel-coated 24-well plates at a density of 2-6 cysts per well. Cysts spontaneously attached to the culture surface and grew. […] Culture mediums were changed every two or three days. To inactivate FGF signaling in CONCEPT organoids, FGFR1/2/3 inhibitor PD 161570 (1 μM; Tocris) and MEK1/2 inhibitor PD 0325901 (2 μM; Tocris) were supplemented to the culture medium staring on day 15. DMSO was used as a control. Treated CONCEPT organoids were harvested on day 24. CONCEPT telencephalon-eye organoids were fixed in 4% PFA for 15-30 minutes at room temperature and processed for immunostaining. These primary antibodies were used: […] Primary antibodies were visualized using Alexa Fluor 488-, 568-, and 647-conjugated secondary antibodies and imaged using a Zeiss AxioObserver Z1 microscope. […] In dual-color immunohistochemistry for PAX2 and FGF8, FGF8 was visualized using AP-conjugated anti mouse secondary antibody (Invitrogen A16038), and PAX2 was detected by biotin-conjugated anti rabbit secondary antibody (Invitrogen B2770) followed by […]-conjugated streptavidin (ThermoScientific 21130).

Assay [2] has as its system voltage-gated potassium channels.
For assay [3], the system named is voltage-gated sodium channels. The class given is cell-based, human.

On to `CCN(CC)CCCCNc1ncc2cc(-c3c(Cl)cccc3Cl)c(NC(=O)NC(C)(C)C)nc2n1` [PD 161570], for which, in assay [1], the “RGC somas and directional axon growth marked by CNTN2 expression” value was “drastically reduced or nearly absent”; the “optic disc cells marked by moderate-level PAX2 expression at the outer regions” value is listed as “severely reduced”; the “optic stalk cells marked by high-level PAX2 expression at the inner zone” value is on record as “reduced”; the “retinal (neuroretinal) progenitors marked by VSX2 expression” value is listed as “reduced”.

`O=C(NOC[C@H](O)CO)c1ccc(F)c(F)c1Nc1ccc(I)cc1F` [PD 0325901]: in assay [1], the “RGC somas and directional axon growth marked by CNTN2 expression” value is “substantially reduced or nearly absent; also recorded: drastically reduced”; the “optic disc cells marked by moderate-level PAX2 expression at the outer regions” value is recorded as “nearly absent”; the “optic stalk cells marked by high-level PAX2 expression at the inner zone” value is on record as “largely remained”; the “retinal (neuroretinal) progenitors marked by VSX2 expression” value is given as “largely remained”.

As for `CC[N+](CC)(CC)CC.[Cl-]` [TEA, Tetraethylammonium-chloride], in assay [2], the “effect on amplitude of outward currents” value was “significantly reduced” and the “mean IK±SD at 60 mV (outward potassium current amplitude)” value was 279±201 pA.

As to `NC1=N[C@H](O)[C@H]2[C@H]3O[C@]4(O)O[C@@H]([C@@H](O)[C@@]2(N1)[C@@H]4O)[C@]3(O)CO` [TTX, Tetrodotoxin-citrate], in assay [3], the “effect on inward currents” value is on record as “abolished all inward currents” and the “mean INa+SD at −10 mV (inward sodium current amplitude)” value is listed as −18.3±13 pA.
